Laboratory results published in patent publication US20240041813A1, “VERY-LONG-CHAIN POLYUNSATURATED FATTY ACIDS, ELOVANOID HYDROXYLATED DERIVATIVES, AND METHODS OF USE” (priority 2020, published 2024).
Entries after “also recorded” stand apart in the source; their conditions may differ.

How the values were obtained:
[1] = system: human corneal epithelial cells (HCEC); assay: HCEC challenged with IFNγ: SASP secretome (β-Gal staining); assay type: cell-based; settings: HCEC 24 h after IFN-γ challenge
[2] = system: Alexa 594-RBD; assay: HCEC challenged with IFNγ: Alexa 594-RBD binding (unbiased imaging, Imaris); assay type: cell-based, human; settings: IFNγ 100 ng/ml and lipid mediators 200 nM for 12 h, images 24 h after RBD
Procedure: (§1) For screening the stimulation of receptor ACE2 by cytokines, the HCEC were cultured with KGM until 50-60% confluence. Then, changed to KBM containing IL-1β, -2, -6 and 8, IFN-α, -ε, and -γ or TNFα at 1, 10 or 100 ng/ml. The cells were harvested after 6 hours and analyze for the gene expression of Ace2. In other experiments, HCEC were stimulated with IFNγ, and thereafter, lipid mediators were added. For the Alexa 594-conjugated RBD binding, IFNγ was used as a cytokine trigger. At 12 hours after cytokine exposure and lipid mediator treatments, […] of labeled RBD was added to the medium. The evaluation of RBD binding was conducted 24 hours after.
Twenty-four hours after Alexa 594-RBD was added to the HCEC, the cells were washed with PBS (3×/5 min) and fixed with 4% paraformaldehyde for 30 minutes at RT. The HCEC were washed 2× with PBS and stained with Hoechst 33342 Solution (ThermoFisher Scientific, Cat. 62249) for 30 minutes at RT. Next, the HCEC were washed 2× with PBS before imaging. For unbiased data collection, 7 designated areas were defined in each well (FIG. 63) and captured with an Olympus FV3000 confocal laser scanning microscopy under “Multi Area Time Lapse” (MATL) mode. All images were acquired with the same parameters and Z-section range, converted and inputted in the Imaris software version 9.5.1. The threshold for the control images was defined by the HCEC without Alexa 594-conjugated RBD of S protein and using it as a threshold filter for the Imaris batch image processing function. The sum of total intensity for each image was used to evaluate the binding efficiency.

[3] = system: ACE2; assay: Rat cornea alkali burn: ACE2 abundance by Jess capillary-based Western Blot; assay type: in vivo; settings: rat cornea after alkali burn; eye drops 20 μl/eye, 3 times/day for 14 days; day 14
Text: Sprague-Dawley rats (8-week-old male) were obtained from Charles River Laboratories (Wilmington, MA, USA) and kept at the Animal Care of the Neuroscience Center of Excellence, Louisiana State University Health (LSUH; New Orleans, LA, USA). All animals were handled in compliance with the guidelines of the ARVO Statement for the Use of Animals in Ophthalmic and Vision Research, and the experimental protocol was approved by the Institutional Animal Care and Use Committee (IACUC) at LSUH.
The rats were anesthetized by intraperitoneal injection of Ketamine (50-100 mg/kg) plus xylazine (5-10 mg/kg). A 4 mm diameter filter paper soaked in 1 N NaOH was placed on the central cornea of the right eye for 45 seconds, and then the eye was thoroughly washed with […] of saline. After injury, the rats were randomly divided into five treatment groups: vehicle; lipoxin A4 (LXA4) from Cayman Chemical (Ann Arbor, MI, USA); R,R Resolvin D6 isomer (RvD6i), R,R neuroprotection D (NPD1), and elovanoid (ELV)-N32. All lipid solutions were prepared at the final concentration of […] using PBS with the minimal contamination of ethanol by evaporating the ethanol and immediately dissolve the lipids in PBS, then vortex well for 2 min. Topical administration (20 μl) was done 3×/day for 14 days. The experiments were double-blinded with the lipid mediators coded during the whole experiments. At the end of the study, when all data was collected, the code was opened.
Briefly, samples were lysed with RIPA buffer containing a protease inhibitor cocktail (Sigma, Cat. P8340). Cell debris was removed after 10 min centrifugation at 16,000×g. Protein concentration was determined by BCA assay (Thermo Fisher Scientific, Cat. 23225) and 1 μg used/reaction. Fluorescent Master Mix was mixed with 40 mM DTT, and the mixture was added to each sample to provide a denaturing and reducing environment. Samples were heated at 95° C./5 min, and 3 μL of each sample were loaded. The 12-230 kDa cartridge (Protein Simple—#SM-W004) was used. Primary antibodies were diluted in antibody diluent 2 buffer (Protein Simple, #042-203) while the working solution of secondary antibodies was provided by the company (Protein Simple, #042-206). Then, the filled plate was spin-down for 10 min at 1,000×g to remove bubbles and plate, and capillaries were loaded into the Jess machine. For data analysis, the area of spectra that matched the molecular weight of the target protein was used. To reduce the coefficient variant, we analyzed the GAPDH for each capillary. The ratio of the targeted protein to GAPDH was used for statistical comparisons. For visualization, the artificial lanes generated from spectra volume was used.

[4] = system: Alexa 594-RBD; assay type: in vivo; settings: rat cornea after alkali burn; 14 days treatment; Alexa 594-RBD 1 μg/eye, 3 times at day 15, examined a day later
[5] = system: Cdkn2a (p16INK4a); assay: HCEC challenged with IFNγ: Cdkn2a gene expression; assay type: cell-based, human; settings: IFNγ 100 ng/ml
Text: All experiments with human corneal epithelial cells were approved by the Institutional Review Board of LSUHNO and conducted in accordance with NIH guidelines. HCEC were kept frozen in the laboratory at passage 2544. Cells were maintained in keratinocyte growth (KGM) medium containing the keratinocyte basal medium (KBM) (Lonza: CC-3101) supplemented with bovine pituitary extract (BPE), hEGF, Insulin, Hydrocortisone and Gentamicin Sulfate-Amphotericin (GA-1000) (Lonza, Cat. CC-4131). For all experiments, cells were seeded at 30,000 cells/cm2.
as §1
Quantitative PCR was performed with the Biomark HD system (Fluidigm, San Francisco, CA, USA). Briefly, 200 ng of RNA was reverse-transcribed using iScript Reverse Transcription Supermix (Bio-Rad), and the cDNA was pre-amplified using the PreAmp Master Mix (PN 100-5580; Fluidigm). The cDNA was then subjected to Exonuclease I treatment and diluted 5 times in TE Buffer. The qPCR reaction mixture and primer reaction mixture were made and loaded into the Biomark 96.96 IFC™ (Integrated Fluidic Circuit). The enzyme reaction was mixed using Juno™ Controller (Fluidigm) and run using the cycling program of (i) 70° C. for 40 minutes followed by 60° C. for 30 seconds, (ii) hot start for 1 minute at 95° C., (iii) 30 cycles of denaturation at 96° C. for 5 seconds, and annealing at 60° C. for 20 seconds, and (iv) melting curves between 60° C. and 95° C. with 1° C. increments/3 seconds. The Ct value of target genes was normalized to the house-keeping genes Gapdh, Hprt1, and Tfrc before normalized to the vehicle group. Relative fold changes from the ΔΔCT calculation was used to make the graph.

CC/C=C\CC(O)\C=C/C=C/C=C/C(O)C/C=C\C/C=C\CCCCCCCCCCCCC(=O)O [ELV-N32, (14Z,17Z,20R,21E,23E,25Z,27S,29Z)-20,27-dihydroxydo-triaconta-14,17,21,23,25,29-hexaenoic acid] was tested. Which “senescence programming genes and SASP secretome activation (β-Gal)” value [1] did it give?
Its value is “blocked; also recorded: suppressed”.

And the “IFNγ-stimulated Alexa 594-RBD binding” value [2]?
The value was “decrease; also recorded: attenuated”.

And the “ACE2 abundance (protein, normalized to GAPDH)” value [3]?
The value was “decrease”.

And the “binding of Alexa 594-RBD to injured cornea” value [4]?
Its value is “decrease; also recorded: counteracted”.

And the Cdkn2a activation [5]?
Its Cdkn2a activation is “decrease”.
